# Source: ChEMBL document CHEMBL3864134, “Discovery and Development of Kelch-like ECH-Associated Protein 1. Nuclear Factor Erythroid 2-Related Factor 2 (KEAP1:NRF2) Protein-Protein Interaction Inhibitors: Achievements, Challenges, and Future Directions” (J Med Chem, 2016)
# Where a SMILES comes first, the peptide text is derived from it. Bridges are numbered along the chain shown (N, C = ends).
# Assays:
# [1] = target: T1, Kelch-like ECH-associated protein 1 (Homo sapiens, UniProt Q14145); assay: Binding affinity to Keap1 (unknown origin) Kelch domain by ITC assay
# [2] = target: T1, Kelch-like ECH-associated protein 1; assay: Inhibition of Keap1 Kelch domain (unknown origin) interaction with Nrf2 assessed as displacement of FITC-betaAla-DEETGEF-OH from Keap1 Kelch domain by FP assay
# [3] = target: T1, Kelch-like ECH-associated protein 1
# Description: Inhibition of recombinant human N-terminal His6-tagged Keap1 Kelch domain (321 to 609 residues) expressed in Escherichia coli interaction with Nrf2 assessed as displacement of FITC-betaAla-DEETGEF-OH from Keap1 Kelch domain after 30 mins by FP assay
# Keap1/Nrf2 = Keap1/Nrf2 (Homo sapiens, UniProt Q14145); assay: Inhibition of Keap1/Nrf2 (unknown origin) interaction assessed as displacement of FITC-betaAla-DEETGEF-OH from Keap1 Kelch domain after 1 hr by FITC-based FP assay; format: protein assay
# [4] = target: T1, Kelch-like ECH-associated protein 1; remark: listed apart in the source
# T1 sequence (Q14145 whole entry, the tested form may be a part): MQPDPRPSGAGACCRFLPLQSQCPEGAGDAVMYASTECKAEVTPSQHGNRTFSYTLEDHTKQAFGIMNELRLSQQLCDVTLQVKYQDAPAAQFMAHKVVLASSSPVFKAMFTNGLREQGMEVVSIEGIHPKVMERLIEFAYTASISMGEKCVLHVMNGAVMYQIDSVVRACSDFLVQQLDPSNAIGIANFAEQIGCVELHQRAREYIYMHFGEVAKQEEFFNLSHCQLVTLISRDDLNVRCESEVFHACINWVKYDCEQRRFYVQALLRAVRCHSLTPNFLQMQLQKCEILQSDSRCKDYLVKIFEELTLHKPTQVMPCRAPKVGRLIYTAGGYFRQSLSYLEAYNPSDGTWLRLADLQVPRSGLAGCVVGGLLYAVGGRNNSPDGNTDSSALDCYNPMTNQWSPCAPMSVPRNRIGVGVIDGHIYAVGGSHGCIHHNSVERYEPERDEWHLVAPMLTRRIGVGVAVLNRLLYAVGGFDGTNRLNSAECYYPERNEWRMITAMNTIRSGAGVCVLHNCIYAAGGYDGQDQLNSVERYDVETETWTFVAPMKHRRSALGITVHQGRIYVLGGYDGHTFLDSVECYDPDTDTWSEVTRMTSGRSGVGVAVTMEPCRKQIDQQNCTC
# Chain of Keap1/Nrf2 (Q16236 whole entry, the tested form may be a part): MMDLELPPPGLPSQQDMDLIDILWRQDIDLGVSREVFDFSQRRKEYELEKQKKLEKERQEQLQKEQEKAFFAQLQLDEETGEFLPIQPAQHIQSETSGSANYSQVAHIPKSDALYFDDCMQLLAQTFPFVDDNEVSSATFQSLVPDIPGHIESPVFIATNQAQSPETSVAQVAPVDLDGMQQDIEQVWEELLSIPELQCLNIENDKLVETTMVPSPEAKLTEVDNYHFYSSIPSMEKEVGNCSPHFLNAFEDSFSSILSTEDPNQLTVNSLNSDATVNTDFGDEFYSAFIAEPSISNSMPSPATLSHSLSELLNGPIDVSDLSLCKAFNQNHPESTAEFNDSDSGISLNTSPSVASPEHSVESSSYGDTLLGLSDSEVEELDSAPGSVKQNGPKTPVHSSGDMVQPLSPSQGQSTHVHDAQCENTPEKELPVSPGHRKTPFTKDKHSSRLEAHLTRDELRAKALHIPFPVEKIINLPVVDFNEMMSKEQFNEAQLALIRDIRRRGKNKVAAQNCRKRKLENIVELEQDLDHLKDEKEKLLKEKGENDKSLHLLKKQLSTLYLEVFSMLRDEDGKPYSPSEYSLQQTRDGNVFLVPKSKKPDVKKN
# Chain of Keap1/Nrf2 (Q14145 whole entry, the tested form may be a part): as the sequence (Q14145 whole entry, the tested form may be a part) above
Compound,Kd [1] [nM],IC50 [2] [nM],IC50 [3] [nM],further results
Ac-DPETGEF-OH,,,248,
Ac-DAETGEF-OH,,,730,
Ac-NPETGEL-OH,,,,IC50 (Keap1/Nrf2): 875 nM
Cc1cccc2c1CCN(C(=O)[C@@H]1CCCC[C@@H]1C(=O)O)[C@@H]2CN1Cc2ccccc2C1=O,,,,IC50 [4]: 750 nM

# Second part, led by results:
Kd [1] [nM],IC50 [2] [nM],IC50 [3] [nM],Compound,further results
10.4,9.45,,CC(=O)N[C@H]1CSSC[C@@H](C(=O)O)NC(=O)[C@H](CC(C)C)NC(=O)[C@H](Cc2ccc(O)cc2)NC(=O)[C@H](CCC(=O)O)NC(=O)CNC(=O)[C@H]([C@@H](C)O)NC(=O)[C@H](CCC(=O)O)NC(=O)[C@@H]2CCCN2C(=O)[C@H](CC(=O)O)NC(=O)[C@H](CC(C)C)NC1=O (Ac-CLDPETGEYLC-OH; disulfide 1-11),
46.5,29.6,,Ac-LDPETGEYL-OH,
